From patent US20020058701A1 (priority 2000, published 2002)

Legend:
[1] = tested on: C57BL/ks diabetic (db/db) mice; assay: Glucose-lowering (plasma glucose) in diabetic db/db mice; assay type: in vivo; details: for Change in Glucose (mg/dL) 30 H: 30 h after initial dose; for Change in Glucose (mg/dL) 54 H: 54 h after initial dose; for reduction in plasma glucose relative to vehicle (control) (in words): oral
Method: (§1) Genetically altered obese diabetic mice (designated C57BL/ks diabetic or db/db) were purchased from the Jackson Laboratory (Bar Harbor, Me., USA), and served as experimental animals. Male animals between the ages of 8-9 weeks were employed in the studies described here. Animals were housed (4 mice/cage) under standard laboratory conditions at 22° C. and 50% relative humidity, and were maintained on a diet of Purina rodent chow and water ad libitum. Prior to treatment, blood was collected from the tail vein of each animal. Mice that had plasma glucose levels between 350 and 600 mg/dL were used. Each treatment group consisted of eight mice that were distributed so that the mean glucose levels were equivalent in each group at the start of the study. Db/db mice received, orally by gavage: the experimental compound administered at 62.5, 125, or 250 mg/kg/day (unless otherwise noted), or metformin administered at […] for 1-3 days. Test compounds were delivered in a liquid vehicle containing 0.25% (w/v) carboxymethyl-cellulose, 1% (v/v) Tween […] (polyoxyethylene sorbitan monosterate), and up to 10% (v/v) dimethyl sulfoxide (DMSO) in a volume of 10 ml/kg. Blood was sampled from the tail vein at three hours, six, eight, twenty-four, and thirty hours post-administration (the first administration) of the particular compound in non-fasted conditions. Experiments 3-5 also sampled blood at fifty-four hours post-administration (the first administration) of the particular compound in non-fasted conditions. Blood samples were analyzed for plasma glucose levels. Individual body weights and mean food consumption (each cage) were also measured daily.
The isolated test substances were prepared as described previously (vide supra). Metformin (1,1-dimethylbiguanide), carboxymethyl cellulose and Tween 60 were purchased from Sigma Chemical Co. (St. Louis, Mo., USA; catalog #'s D-5035, C-4888, and p-1629, respectively). Plasma glucose levels were determined colorimetrically using glucose oxidase (Sigma Chemical Co.; Sigma catalog #315). Significant differences between groups (comparing compound-treated to vehicle-treated) were evaluated using analysis of variance and Fisher's post-hoc test.
Vehicle, metformin (250 mg/kg) or enriched extract (1000 mg/kg) were given to db/db mice at 0(initial), 8, 24, 32, 48, 56, 72, 80, and 96 hours post initial dose.
Plasma glucose levels were measured at baseline, 3 (day 1), 51 hours (Day 3), and 99 hours (Day 5).

[2] = Body weights and food consumption in diabetic db/db mice; assay type: in vivo
Method: as §1

[3] = 125 mg/kg q.d. oral at 0, 24, 48 h, 6 h after initial dose, vehicle 20.0, Table 10
[4] = 125 mg/kg q.d. oral at 0, 24, 48 h, vehicle 0.1, Table 10
[5] = 125 mg/kg q.d. oral at 0, 24, 48 h, vehicle −20.2, Table 10
[6] = Table 10, 125 mg/kg, fifty-four hours after initial dosing, value = size of decline
[7] = Table 10, 125 mg/kg, six hours after initial dosing, value = size of decline
[8] = Table 10, 125 mg/kg, thirty hours after initial dosing, value = size of decline
[9] = dose level of 125 mg/kg, Tables 8 and 10
[10] = 125 mg/kg, vehicle 6.1, Table 11
[11] = 125 mg/kg, vehicle 39.4 ± 0.4, Table 11
[12] = 125 mg/kg, vehicle 40.1 ± 0.4, Table 11
[13] = 125 mg/kg q.d. oral at 0, 24, 48 h, 6 h after initial dose, vehicle 15.5, Table 8
[14] = 125 mg/kg q.d. oral at 0, 24, 48 h, vehicle 56.6, Table 8
[15] = 125 mg/kg q.d. oral at 0, 24, 48 h, vehicle 88.6, Table 8
[16] = Table 8, printed dose 250 mg/kg, thirty hours after initial dosing, value = size of decline
[17] = 125 mg/kg, vehicle 6.0, Table 9
[18] = 125 mg/kg, vehicle 39.8 ± 0.7, Table 9
[19] = 125 mg/kg, vehicle 39.7 ± 0.6, Table 9

Compound: COc1cc(/C=C/c2ccccc2)c(C(=O)O)c(O)c1CC=C(C)C [Compound C, 3-hydroxy-4-(3-methyl-2-butenyl)-5-methoxystilbene-2-carboxylic acid]
- Change in Glucose (mg/dL) 6 H ([1]; 62.5 mg/kg q.d. oral at 0, 24, 48 h, 6 h after initial dose, vehicle 35.9, Tables 4 and 6 (dose of row)): -18.6 mg/dL
- Change in Glucose (mg/dL) 30 H ([1]; 62.5 mg/kg q.d. oral at 0, 24, 48 h, vehicle 79.6, Tables 4 and 6): -40.7 mg/dL
- Change in Glucose (mg/dL) 54 H ([1]; 62.5 mg/kg q.d. oral at 0, 24, 48 h, vehicle 60.3, Tables 4 and 6): 65.4 mg/dL
- Change in Glucose (mg/dL) 6 H ([1]; 125 mg/kg q.d. oral at 0, 24, 48 h, 6 h after initial dose, vehicle 35.9, Tables 4 and 6 (dose of row)): -34.3 mg/dL
- Change in Glucose (mg/dL) 30 H ([1]; 125 mg/kg q.d. oral at 0, 24, 48 h, vehicle 79.6, Tables 4 and 6): -69.7 mg/dL
- Change in Glucose (mg/dL) 54 H ([1]; 125 mg/kg q.d. oral at 0, 24, 48 h, vehicle 60.3, Tables 4 and 6): -60.4 mg/dL
- Change in Glucose (mg/dL) 3 h ([1]; 250 mg/kg oral, dosed at 0, 8 and 24 h, 3 h after initial dose, vehicle −8.0, Table 1): -10.4 mg/dL
- Change in Glucose (mg/dL) 6 h ([1]; 250 mg/kg oral, dosed at 0, 8 and 24 h, 6 h after initial dose, vehicle 64.5, Table 1): -8.4 mg/dL
- Change in Glucose (mg/dL) 8 h ([1]; 250 mg/kg oral, dosed at 0, 8 and 24 h, 8 h after initial dose, vehicle 79.5, Table 2): +4.5 mg/dL
- Change in Glucose (mg/dL) 24 h ([1]; 250 mg/kg oral, dosed at 0, 8 and 24 h, 24 h after initial dose, vehicle 18.6, Table 2): -122.8 mg/dL
- Change in Glucose (mg/dL) 6 H ([1]; 250 mg/kg q.d. oral at 0, 24, 48 h, 6 h after initial dose, vehicle 35.9, Tables 4 and 6): -120.8 mg/dL
- Change in Glucose (mg/dL) 30 H ([1]; 250 mg/kg q.d. oral at 0, 24, 48 h, vehicle 79.6, Tables 4 and 6): -221.4 mg/dL
- Change in Glucose (mg/dL) 54 H ([1]; 250 mg/kg q.d. oral at 0, 24, 48 h, vehicle 60.3, Tables 4 and 6): -122.0 mg/dL
- mean glucose levels declined from the baseline value ([1]; Table 8, 125 mg/kg, thirty hours after initial dosing, value = size of decline): 12.2 mg/dL
- mean glucose levels rose from the baseline values ([1]; Tables 1-2, 250 mg/kg, eight hours after initial dosing, value = size of rise): 4.5 mg/dL
- mean glucose levels declined from the baseline value ([1]; Tables 1-2, 250 mg/kg, six hours after initial dosing, value = size of decline): 8.4 mg/dL
- mean glucose levels rose from the baseline value ([1]; Tables 1-2, 250 mg/kg, thirty hours after dosing, value = size of rise): 36.5 mg/dL
- mean glucose levels declined from the baseline values ([1]; Tables 1-2, 250 mg/kg, twenty-four hours after initial dosing, value = size of decline): 122.8 mg/dL
- mean glucose levels declined from the baseline value ([1]; Tables 4 and 6, 125 mg/kg, six hours after initial dosing, value = size of decline): 34.3 mg/dL
- reduction in plasma glucose relative to vehicle (control) (in words) ([1]; dose level of 250 mg/kg, Tables 1 and 2): statistically significant reduction
- reduction in plasma glucose relative to vehicle (control) (in words) ([1]; dose levels of 62.5, 125, and 250 mg/kg, Tables 4 and 6): statistically significant reduction
- adverse effect on food intake or body weight (in words) ([2]; 62.5 mg/kg, 125 mg/kg, and 250 mg/kg, Tables 5 and 7): absence of any significantly adverse effect
- Food Intake (g/mouse) 0-48 h ([2]; 62.5 mg/kg, vehicle 6.3, Tables 5 and 7): 5.9 g/mouse
- Body weight (g/mouse) (mean) 0 h ([2]; 62.5 mg/kg, vehicle 39.2 ± 0.5, Tables 5 and 7): 37.4 ± 0.4 g/mouse
- Body weight (g/mouse) (mean) 48 hr ([2]; 62.5 mg/kg, vehicle 39.5 ± 0.5, Tables 5 and 7): 38.2 ± 0.5 g/mouse
- Food Intake (g/mouse) 0-48 h ([2]; 125 mg/kg, vehicle 6.3, Tables 5 and 7): 5.6 g/mouse
- Body weight (g/mouse) (mean) 0 h ([2]; 125 mg/kg, vehicle 39.2 ± 0.5, Tables 5 and 7): 39.4 ± 0.4 g/mouse
- Body weight (g/mouse) (mean) 48 hr ([2]; 125 mg/kg, vehicle 39.5 ± 0.5, Tables 5 and 7): 39.7 ± 0.3 g/mouse
- food intake compared with the normal food intake range (5-6 g/day/mouse) (in words) ([2]; 250 mg/kg): less than that of the normal food intake range
- Food Intake (g/mouse) 0-24 h ([2]; 250 mg/kg, 0-24 h, vehicle 6.8, Table 3): 3.3 g/mouse
- Food Intake (g/mouse) 0-48 h ([2]; 250 mg/kg, vehicle 6.3, Tables 5 and 7): 4.3 g/mouse
- Body weight (g/mouse) (mean) 0 h ([2]; 250 mg/kg, vehicle 38.0 ± 0.8, Table 3): 38.7 ± 0.8 g/mouse
- Body weight (g/mouse) (mean) 0 h ([2]; 250 mg/kg, vehicle 39.2 ± 0.5, Tables 5 and 7): 39.1 ± 0.8 g/mouse
- Body weight (g/mouse) (mean) 24 hr ([2]; 250 mg/kg, 24 hr, vehicle 37.8 ± 0.8, Table 3): 38.0 ± 0.7 g/mouse
- Body weight (g/mouse) (mean) 48 hr ([2]; 250 mg/kg, vehicle 39.5 ± 0.5, Tables 5 and 7): 38.4 ± 0.1 g/mouse
- adverse effect on food intake or body weight (in words) ([2]; 250 mg/kg, Table 3): absence of any significantly adverse effect

Compound: COc1cc(/C=C/c2ccccc2)cc(O)c1CC=C(C)C [Compound D, 3-hydroxy-5-methoxy-4-(3-methyl-2-butenyl)stilbene]
- Food Intake (g/mouse) 0-48 h [2, 10]: 5.7 g/mouse
- Body weight (g/mouse) (mean) 0 h [2, 11]: 39.3 ± 0.6 g/mouse
- Body weight (g/mouse) (mean) 48 hr [2, 12]: 39.7 ± 0.7 g/mouse

Compound: COc1cc(O)cc(CCc2ccccc2)c1CC=C(C)C [Compound E]
- Change in Glucose (mg/dL) 6 H [1, 13]: -2.1 mg/dL
- Change in Glucose (mg/dL) 6 H [1, 3]: -53.8 mg/dL
- Change in Glucose (mg/dL) 30 H [1, 4]: -109.9 mg/dL
- Change in Glucose (mg/dL) 30 H [1, 14]: -47.0 mg/dL
- Change in Glucose (mg/dL) 54 H [1, 15]: -54.7 mg/dL
- Change in Glucose (mg/dL) 54 H [1, 5]: -86.6 mg/dL
- mean glucose levels declined from baseline values ([1]; Table 8, 125 mg/kg, fifty-four hours after initial dosing, value = size of decline): 54.7 mg/dL
- mean glucose levels declined from the baseline value [1, 16]: 47.0 mg/dL
- mean glucose levels declined from baseline values [1, 6]: 86.6 mg/dL
- mean glucose levels declined from the baseline value [1, 7]: 53.8 mg/dL
- mean glucose levels declined from the baseline value [1, 8]: 109.9 mg/dL
- reduction in plasma glucose relative to vehicle (control) (in words) [1, 9]: statistically significant reduction
- Food Intake (g/mouse) 0-48 h [2, 17]: 5.7 g/mouse
- Food Intake (g/mouse) 0-48 h [2, 10]: 5.7 g/mouse
- Body weight (g/mouse) (mean) 0 h [2, 11]: 39.6 ± 0.3 g/mouse
- Body weight (g/mouse) (mean) 0 h [2, 18]: 39.5 ± 0.5 g/mouse
- Body weight (g/mouse) (mean) 48 hr [2, 19]: 39.7 ± 0.6 g/mouse
- Body weight (g/mouse) (mean) 48 hr [2, 12]: 40.2 ± 0.4 g/mouse
- adverse effect on food intake or body weight (in words) ([2]; 125 mg/kg, Tables 9 and 11): absence of any significantly adverse effect

Compound: COc1cc(O)cc(CCc2ccccc2)c1 [Compound G]
- Change in Glucose (mg/dL) 6 H [1, 13]: 35.0 mg/dL
- Change in Glucose (mg/dL) 30 H [1, 14]: -12.2 mg/dL
- Change in Glucose (mg/dL) 54 H [1, 15]: 12.0 mg/dL
- mean glucose levels rose from the baseline values ([1]; Table 8, 125 mg/kg, fifty-four hours after initial dosing, value = size of rise): 12.0 mg/dL
- mean glucose levels declined from the baseline value [1, 16]: 74.6 mg/dL
- reduction in plasma glucose relative to vehicle (control) (in words) [1, 9]: statistically significant reduction
- Food Intake (g/mouse) 0-48 h [2, 17]: 5.9 g/mouse
- Body weight (g/mouse) (mean) 0 h [2, 18]: 39.0 ± 1.1 g/mouse
- Body weight (g/mouse) (mean) 48 hr [2, 19]: 39.0 ± 1.1 g/mouse
- adverse effect on food intake or body weight (in words) ([2]; 125 mg/kg, Tables 9 and 11): absence of any significantly adverse effect
